Experimental data as given in ChEMBL document CHEMBL5584253, “Polyfunctionalized organoselenides: New synthetic approach from selenium-containing cyanohydrins and anti-melanoma activity” (Bioorg Med Chem Lett, 2024).
Calls of active or inactive are those of the source. The rule behind the calls is not given here.

How the values were obtained:
BALB/3T3 [1] = test: Cytotoxicity against mouse BALB/3T3 cells assessed as reduction in cell viability at 10 to 50 ug/ml measured after 72 hrs; type: toxicity, cell-based; settings: balb/3t3, 72 h, dose 10-50 µg/ml
B16-F10 [2] = test: Antiproliferative activity against mouse B16-F10 cells assessed as reduction in cell number at 10 to 50 ug/ml measured after 72 hrs; type: functional, cell-based; settings: dose 10-50 µg/ml
BALB/3T3 [3] = test: Cytotoxicity against mouse BALB/3T3 cells assessed as reduction in cell viability at 50 ug/ml measured after 72 hrs; type: toxicity, cell-based; settings: balb/3t3, 72 h, dose 50 µg/ml
BALB/3T3 [4] = test: Cytotoxicity against mouse BALB/3T3 cells assessed as reduction in cell viability at 10 to 50 ug/ml measured after 72 hrs by neutral red staining based analysis; type: toxicity; settings: balb/3t3, 72 h, dose 10-50 µg/ml
BALB/3T3 [5] = test: Cytotoxicity against mouse BALB/3T3 cells assessed as reduction in cell viability at 10 to 50 ug/ml measured after 72 hrs by crystal violet staining based analysis; type: toxicity; settings: balb/3t3, 72 h, dose 10-50 µg/ml
B16-F10 [6] = test: Antiproliferative activity against mouse B16-F10 cells assessed as reduction in cell viability at 10 to 50 ug/ml measured after 72 hrs; type: functional, cell-based; settings: dose 10-50 µg/ml
B16-F10 [7] = test: Antiproliferative activity against mouse B16-F10 cells assessed as reduction in cell number at 50 ug/ml measured after 72 hrs; type: functional, cell-based; settings: dose 50.0 µg/ml
B16-F10 [8] = test: Antiproliferative activity against mouse B16-F10 cells assessed as reduction in cell viability at 50 ug/ml measured after 72 hrs by neutral red uptake assay; type: functional, cell-based; settings: dose 50.0 µg/ml

Row | Compound | Activity (BALB/3T3 [1]) | Activity (BALB/3T3 [4]) | Activity (BALB/3T3 [5]) | other results
1 | O=C(O)C(O)c1ccc([Se]c2ccccc2)cc1 (centres undefined) | Non-Toxic |  |  | Activity (B16-F10 [2]): Active; Activity (BALB/3T3 [3]): Non-Toxic
2 | OCC(O)c1ccc([Se]c2ccccc2)cc1 (centres undefined) |  | Toxic | Toxic | 
3 | CCCC[Se]c1ccc(C(O)C(=O)OC)cc1 (centres undefined) | Non-Toxic |  |  | Activity (B16-F10 [6]): inactive
4 | COC(=O)C(OC(C)=O)c1ccc([Se]c2ccccc2)cc1 (centres undefined) |  | Toxic | Toxic | 
5 | COC(=O)C(O)c1ccc([Se]c2ccccc2)cc1 (centres undefined) |  | Toxic | Toxic | 
6 | CCCC[Se]c1ccc(C(O)C(=O)O)cc1 (centres undefined) | Non-Toxic |  |  | Activity (B16-F10 [7]): Active; Activity (B16-F10 [8]): Active
